According to publication PMC314469, “Protein Interaction Networks by Proteome Peptide Scanning” (PLoS Biology, 2004):

System: Myo5 SH3 domain
Assay: SPOT analysis of cellulose-bound peptides (WISE), Myo5 SH3 domain (Dataset S4)
Type: binding, Saccharomyces cerevisiae
Settings: for The normalized value in BLU units: Myo5 SH3 domain
[1] = SPOT analysis of membrane-bound peptides, normalized value (see methods)
[2] = SPOT analysis of cellulose-bound 14-mer yeast proteome peptides, normalized value, mean where the peptide was synthesized more than once
[3] = SPOT analysis of membrane-synthesized peptides probed with Myo5 SH3 domain, normalized value
[4] = SPOT analysis of cellulose-bound peptides probed with Myo5 SH3 domain, normalized value

SQKKKALPKQPKAS
The normalized value in BLU units [1]: 492.9 BLU

SRSKRSKPLPPQLL
The normalized value in BLU units [2]: 884.3 BLU

SRVTRKRPREPKST
The normalized value in BLU units [2]: 829.0 BLU

SRYLKDHPNLPTPE
The normalized value in BLU units (SPOT analysis, Myo5 SH3) [3]: 69.2 BLU

SSKIRPTPRKPSRM
The normalized value in BLU units (SPOT analysis, Myo5 SH3) [3]: 673.3 BLU

SSVSKLKPSLPNKL
The normalized value in BLU units (SPOT analysis, Myo5 SH3) [3]: 418.3 BLU

STDHRGTPANPGRV
The normalized value in BLU units (SPOT analysis, Myo5 SH3) [3]: 257.1 BLU

STNAKKDPFPPPKD
The normalized value in BLU units (SPOT analysis, Myo5 SH3) [3]: 198.5 BLU

SVDPKNYPDAPLEG
The normalized value in BLU units [2]: 91.1 BLU

SVNIKCWPLKPSNF
The normalized value in BLU units [2]: 56.5 BLU

SVSEKTNPSSPSVS
The normalized value in BLU units (SPOT analysis, Myo5 SH3) [3]: 126.7 BLU

SWAVLPVPGGPVMY
The normalized value in BLU units [2]: 69.2 BLU

SWLTMLPPMAPLLS
The normalized value in BLU units (SPOT analysis, Myo5 SH3) [4]: 504.9 BLU

SWRSLTKPKIPLYK
The normalized value in BLU units [2]: 356.9 BLU

SYISRKYPRAPAFI
The normalized value in BLU units (SPOT analysis, Myo5 SH3) [3]: 740.2 BLU

SYMDKIYPDLPNDK
The normalized value in BLU units [1]: 83.0 BLU

TAAELQAPPPPPSS
The normalized value in BLU units (SPOT analysis, Myo5 SH3) [4]: 315.2 BLU

TAPIHSTPKPPPND
The normalized value in BLU units [2]: 77.7 BLU

TARNKKSPGGPRQR
The normalized value in BLU units (SPOT analysis, Myo5 SH3) [3]: 593.2 BLU

TASGKTSPILPLQN
The normalized value in BLU units [1]: 290.5 BLU

TASQLQNPPPPPST
The normalized value in BLU units [2]: 168.2 BLU

TAWDMVPPYSPLSE
The normalized value in BLU units [2]: 126.6 BLU

TDLFKPLPEPPTEL
The normalized value in BLU units (SPOT analysis, Myo5 SH3) [3]: 23.4 BLU

TDLGKDIPFFPSSE
The normalized value in BLU units [1]: 146.5 BLU

TDTTKVTPIVPVPI
The normalized value in BLU units (SPOT analysis, Myo5 SH3) [3]: 48.0 BLU

TEDGFVIPALPAAV
The normalized value in BLU units [2]: 290.4 BLU

TEEILPTPVQPGGH
The normalized value in BLU units [2]: 121.0 BLU

TEFSRPIPPTPSGF
The normalized value in BLU units [1]: 163.0 BLU

TEGKYAPPSQPSMA
The normalized value in BLU units (SPOT analysis, Myo5 SH3) [4]: 222.8 BLU

TEIYKLEPREPQVD
The normalized value in BLU units [1]: 29.1 BLU

TELLKTLPFYPTPS
The normalized value in BLU units [2]: 77.3 BLU

TELLRIIPEMPKDL
The normalized value in BLU units [1]: 228.1 BLU

TELNLSCPNVPGKP
The normalized value in BLU units [2]: 227.7 BLU

TEVWRKVPMKPIFE
The normalized value in BLU units (SPOT analysis, Myo5 SH3) [3]: 242.9 BLU

TFRDMDLPQHPVIH
The normalized value in BLU units (SPOT analysis, Myo5 SH3) [4]: 188.2 BLU

TFSIYSIPSKPGEC
The normalized value in BLU units (SPOT analysis, Myo5 SH3) [4]: 226.8 BLU

TGESRKAPLIPLLK
The normalized value in BLU units (SPOT analysis, Myo5 SH3) [3]: 214.2 BLU

TGGGRIVPGVPPGA
The normalized value in BLU units (SPOT analysis, Myo5 SH3) [3]: 118.4 BLU

TGKFRYMPFSPAGT
The normalized value in BLU units (SPOT analysis, Myo5 SH3) [3]: 555.5 BLU

TGKPRKTPRPPFPF
The normalized value in BLU units [2]: 1192.8 BLU

TGYPRYFPQPPVQR
The normalized value in BLU units [1]: 5858.1 BLU

TIEARVHPEPPNKP
The normalized value in BLU units [2]: 374.9 BLU

TILERLTPLVPNNL
The normalized value in BLU units [1]: 249.4 BLU

TINSRFYPPIPISE
The normalized value in BLU units (SPOT analysis, Myo5 SH3) [3]: 76.4 BLU

TKAKKEKPKPPKPI
The normalized value in BLU units [2]: 157.7 BLU

TKFTKPKPKQPVLP
The normalized value in BLU units (SPOT analysis, Myo5 SH3) [3]: 445.1 BLU

TKKRKLGPKAPNPL
The normalized value in BLU units [1]: 693.8 BLU

TKRQRGEPSEPQQD
The normalized value in BLU units [1]: 27.7 BLU

TKTDKSYPMCPVDA
The normalized value in BLU units (SPOT analysis, Myo5 SH3) [3]: 150.0 BLU

TLATLTEPKLPKSY
The normalized value in BLU units [2]: 18.0 BLU

TLDEKECPSVPPTV
The normalized value in BLU units [2]: 211.5 BLU

TLDEKNLPRLPTPF
The normalized value in BLU units (SPOT analysis, Myo5 SH3) [3]: 205.2 BLU

TLEWLLTPYTPGDD
The normalized value in BLU units (SPOT analysis, Myo5 SH3) [4]: 163.5 BLU

TLFRFIVPFNPYFS
The normalized value in BLU units [2]: 881.8 BLU

TLHELGVPITPIAF
The normalized value in BLU units [2]: 118.6 BLU

TLIEYMGPAPPKGS
The normalized value in BLU units (SPOT analysis, Myo5 SH3) [4]: 133.3 BLU

TLKKFVLPCLPRKN
The normalized value in BLU units (SPOT analysis, Myo5 SH3) [4]: 504.4 BLU

TLKKKKTPKKPIAA
The normalized value in BLU units (SPOT analysis, Myo5 SH3) [3]: 535.4 BLU

TLNDRQIPLSPDQM
The normalized value in BLU units [1]: 73.6 BLU

TLPPLSSPMNPNGH
The normalized value in BLU units (SPOT analysis, Myo5 SH3) [4]: 252.3 BLU

TLRSMIPPFTPQLD
The normalized value in BLU units [2]: 412.7 BLU

TMKNKPKPTPPSPP
The normalized value in BLU units [1]: 909.8 BLU

TNGPRYSPQNPRPF
The normalized value in BLU units [1]: 158.5 BLU

TNSVKATPVPPTLA
The normalized value in BLU units [1]: 168.0 BLU

TPINFVFPNLPLEH
The normalized value in BLU units [2]: 81.8 BLU

TPMDFPEPVGPLAI
The normalized value in BLU units [2]: 175.4 BLU

TPPPPPLPSVLSS
The normalized value in BLU units (SPOT analysis, Myo5 SH3) [4]: 25804 BLU

TPQSRFPPYSPLLP
The normalized value in BLU units [1]: 442.7 BLU

TPSNMGSPGSPVNV
The normalized value in BLU units (SPOT analysis, Myo5 SH3) [4]: 156.2 BLU

TPTHHHIPHIPNQN
The normalized value in BLU units [2]: 147.9 BLU

TPTPHPHPHTPHPH
The normalized value in BLU units [2]: 157.9 BLU

TPYQLLSPILPVLL
The normalized value in BLU units [2]: 287.1 BLU
